According to the Biogen ADME set (Fang et al. 2023):
Converted amounts (≈) assume the structure as drawn.

Conditions: for aqueous solubility: pH 6.8

Row | Compound | MDR1-MDCK efflux ratio | intrinsic clearance, human liver microsomes | intrinsic clearance, rat liver microsomes | fraction unbound, human plasma | fraction unbound, rat plasma | aqueous solubility
1 | CN(C)C(=O)C1(Cc2ccccc2-c2ccccc2)CCN(C(=O)C2CCCO2)CC1 (configuration not stated) | 17.3 | 395 mL/min/kg | 2390 mL/min/kg | 0.0799 | 0.184 | 84.1 µg/mL (≈ 200 µM)
2 | Cc1ccc(C)c(C(=O)Nc2cnc3c(c2)c(C)nn3C)c1 | 0.67 | 6.52 mL/min/kg | 129 mL/min/kg |  |  | 2.33 µg/mL (≈ 7.92 µM)
3 | CCc1cccc(C)c1NC(=O)c1ccc(C)o1 | 0.661 | ≤ 4.74 mL/min/kg | 172 mL/min/kg |  |  | 
4 | N#Cc1cccc(CN2CCOC[C@H](Oc3ccccc3)C2)c1 | 0.507 | 128 mL/min/kg | 2020 mL/min/kg |  |  | 52.9 µg/mL (≈ 171 µM)
5 | CC(=O)Nc1ccc2nc(N3CCOCC3)sc2c1 | 0.807 | ≤ 4.74 mL/min/kg | 23.1 mL/min/kg |  |  | 44 µg/mL (≈ 159 µM)
6 | Cn1c(CNC(=O)Cc2cccc3ccccc23)nc2ccccc21 | 2.33 | 187 mL/min/kg | 1590 mL/min/kg |  |  | 10.1 µg/mL (≈ 30.5 µM)
7 | Cc1ccc(NC(=O)c2c([O-])n(-c3ccc(C)cc3)n[n+]2Cc2ccccc2)cc1 | 1.02 |  |  |  |  | 0.21 µg/mL (≈ 0.527 µM)
8 | COc1cccc(NC(=O)CNc2cccc(-c3ccnc(C)n3)c2)c1 | 2.39 | 61.2 mL/min/kg | 250 mL/min/kg |  |  | 50.5 µg/mL (≈ 145 µM)
9 | CC(C)(C)Nc1cc(NCC2CCOCC2)c2ncc(-c3ccc(C(=O)NC4CC4)cc3)n2n1 | 7.52 |  |  |  |  | 0.4 µg/mL (≈ 0.865 µM)
10 | Cc1c(C)n(Cc2ccccc2)c2ncnc(N)c12 | 0.607 | 16 mL/min/kg | 516 mL/min/kg |  |  | 43.1 µg/mL (≈ 171 µM)
11 | O=C(NCCc1cnn(-c2ccccc2)c1)N1CCC1 | 1.34 | ≤ 4.74 mL/min/kg | 54.8 mL/min/kg |  |  | 39.6 µg/mL (≈ 146 µM)
12 | O=c1oc2cccnc2n1Cc1ncc(-c2ccc(F)cc2)o1 | 2.86 | ≤ 4.74 mL/min/kg | ≤ 10.7 mL/min/kg |  |  | 
13 | O=C(CC[C@@H]1CCCN2CCCC[C@H]12)NCc1ncc(Cl)cn1 | 33.8 | ≤ 4.74 mL/min/kg | 37.6 mL/min/kg |  |  | 
14 | CCCNC(=O)c1ccnc(N(C)C)c1 | 0.616 | 39 mL/min/kg | 83.5 mL/min/kg |  |  | 38.1 µg/mL (≈ 184 µM)
15 | CC1(C(=O)O)CCN(Cc2ccccc2)CC1 |  | ≤ 4.74 mL/min/kg | ≤ 10.7 mL/min/kg |  |  | 44.9 µg/mL (≈ 193 µM)
16 | Cn1ccc2c(NC(=O)N3CCCN(C(=O)Oc4ccccc4)CC3)cccc21 |  | 41.8 mL/min/kg | 777 mL/min/kg |  |  | 71.9 µg/mL (≈ 183 µM)
17 | O=C(c1noc2c1CCCC2)N1CCN(c2ncccn2)CC1 | 0.624 | 10.3 mL/min/kg | 2910 mL/min/kg |  |  | 53.3 µg/mL (≈ 170 µM)
18 | CC(C)c1cc(C(=O)N2Cc3ccc(CN4CCN(C)CC4)cc3C2)c(O)cc1O | 24.3 | ≤ 4.74 mL/min/kg | 50.4 mL/min/kg |  |  | 44.6 µg/mL (≈ 109 µM)
19 | Cc1nc2ccccc2c(N)c1C(=O)/C=C/c1ccccc1 | 0.244 | 50 mL/min/kg | 922 mL/min/kg |  |  | 41.4 µg/mL (≈ 144 µM)
20 | Cc1cc(C)cc(OCCN(C)C(=O)NCCS(=O)(=O)N(C)C)c1 | 12.1 | 37.4 mL/min/kg | 1090 mL/min/kg |  |  | 
21 | Cc1nc(N2CCc3c(ncn3C)C2)c2c(C)c(C)sc2n1 | 1.94 | 94.2 mL/min/kg | 655 mL/min/kg |  |  | 47.5 µg/mL (≈ 152 µM)
22 | Cc1cc(C(=O)NCC2CCC3(CC2)OCCO3)[nH]n1 | 4.03 | ≤ 4.74 mL/min/kg | 99.2 mL/min/kg |  |  | 
23 | Cc1cc(NC2CCCC2)nc(C2CCNCC2)n1 | 66.7 | ≤ 4.74 mL/min/kg | 24.8 mL/min/kg |  |  | 71.4 µg/mL (≈ 274 µM)
24 | O=C([C@H]1CCCN(Cc2ccc(F)cc2)C1)N1CCc2ccccc2C1 | 0.792 | 336 mL/min/kg | 3660 mL/min/kg |  |  | 50 µg/mL (≈ 142 µM)
25 | COc1ccc(CNC(=O)c2nnn(-c3ccc(OC)cc3)c2N)cc1 | 0.513 | 7.49 mL/min/kg | 80.4 mL/min/kg |  |  | 11.5 µg/mL (≈ 32.7 µM)
26 | COCCOc1ccc(N2CCN(CCn3ncc4c3nc(N)n3nc(-c5ccco5)nc43)CC2)cc1 |  |  |  |  |  | 0.9 µg/mL (≈ 1.79 µM)
27 | Cc1ccnc(Oc2cc(N)ccc2C)c1 | 0.542 | ≤ 4.74 mL/min/kg | 230 mL/min/kg |  |  | 35.3 µg/mL (≈ 165 µM)
28 | Nc1ccc2c(ccn2CC(=O)N2CCOCC2)c1 |  | ≤ 4.74 mL/min/kg | ≤ 10.7 mL/min/kg |  |  | 50.5 µg/mL (≈ 195 µM)
29 | c1ccc2nc(N3CCCC4(CCNCC4)CC3)cnc2c1 | 33.3 | ≤ 4.74 mL/min/kg | 495 mL/min/kg |  |  | 

Results, then the compound that gave them:

Row | MDR1-MDCK efflux ratio | intrinsic clearance, human liver microsomes | intrinsic clearance, rat liver microsomes | fraction unbound, human plasma | fraction unbound, rat plasma | aqueous solubility | Compound
30 | 1.18 | 371 mL/min/kg | 4650 mL/min/kg |  |  |  | CCC(CC)N1CC[C@H](O)[C@@](O)(COc2cc(C)ccc2Cl)C1
31 | 1.24 | 17.4 mL/min/kg | 80.6 mL/min/kg |  |  | 56.2 µg/mL (≈ 205 µM) | c1nc(NC2CCN(C3CC3)CC2)c2sccc2n1
32 | 3.43 |  |  |  |  | 0.35 µg/mL (≈ 0.705 µM) | CN(C(=O)CNC(=O)c1ccccc1OCC(=O)Nc1ccc(Br)cc1)c1ccccc1
33 |  |  |  |  |  | 10.1 µg/mL (≈ 57 µM) | O=C(O)Cc1nc2ccccc2[nH]1
34 |  |  |  | 0.0007 | 0.0004 | 45.4 µg/mL (≈ 119 µM) | CC(C)(Oc1ccc(-c2cnc(N)c(-c3ccc(Cl)cc3)c2)cc1)C(=O)O
35 | 2.25 | 38.5 mL/min/kg | 1610 mL/min/kg |  |  |  | C#Cc1cccc(N(CC(=O)NC(N)=O)Cc2cccs2)c1
36 | 6.31 | 76.7 mL/min/kg | 145 mL/min/kg |  | 0.0088 |  | CC1(C)CC[C@]2(NC(=O)C(C)(F)F)CC[C@]3(C)[C@H](C(=O)C=C4[C@@]5(C)C=C(C#N)C(=O)C(C)(C)[C@@H]5CC[C@]43C)[C@@H]2C1
37 |  | 79.4 mL/min/kg | 6660 mL/min/kg |  |  | 2.65 µg/mL (≈ 7.13 µM) | O=c1[nH]c2ccccc2n1C1CCN(S(=O)(=O)Cc2ccccc2)CC1
38 | 34.4 | 29.4 mL/min/kg | 281 mL/min/kg |  |  | 43.9 µg/mL (≈ 122 µM) | CC(C)c1nc(O)c2nnn(C[C@@H]3CCCN(C(=O)C(C)(C)C)C3)c2n1
39 | 2.26 |  |  |  |  | 0.81 µg/mL (≈ 1.84 µM) | COc1ccccc1-n1cc2c(c1-c1ccccc1Br)c(=O)n(C)c(=O)n2C
40 | 12 | ≤ 4.74 mL/min/kg | ≤ 10.7 mL/min/kg |  |  | 28.4 µg/mL (≈ 73 µM) | CC1=NN(c2ccc(F)cc2)C(=O)/C1=C(/C)Nc1ccc(S(N)(=O)=O)cc1
41 | 14.7 | ≤ 4.74 mL/min/kg | 38.8 mL/min/kg |  |  |  | CCCc1ncncc1C(=O)NCc1nncn1CCC
42 | 4.21 | 582 mL/min/kg | 3140 mL/min/kg |  |  | 39.8 µg/mL (≈ 99.8 µM) | COc1ccc(OC)c(S(=O)(=O)Nc2cccc(CCc3ccccn3)c2)c1
43 | 28 | ≤ 4.74 mL/min/kg | ≤ 10.7 mL/min/kg |  |  | 29.2 µg/mL (≈ 72.6 µM) | COc1cc(OC)c(OC)cc1CNc1ccc(N2CCOCC2)c(C(=O)O)c1
44 | 0.649 | 29.3 mL/min/kg | 217 mL/min/kg |  |  | 42.4 µg/mL (≈ 135 µM) | Cc1ccc(F)cc1NC(=O)c1cnc2onc(C(C)C)c2c1
45 |  | 35.8 mL/min/kg | 614 mL/min/kg |  |  |  | O=C(Nc1cccc2ncccc12)[C@H]1CCCN(S(=O)(=O)c2cccs2)C1
46 | 5.83 | 696 mL/min/kg | 4470 mL/min/kg |  |  | 56.4 µg/mL (≈ 142 µM) | O=C(c1cccc2ccccc12)N1CCCC(C(=O)N2CCc3ccccc3C2)C1 (configuration not stated)
47 | 2.35 | 13.3 mL/min/kg | 80.5 mL/min/kg |  |  |  | Fc1ccc(CCNc2ncnc3ncccc23)cc1
48 | 1.52 | ≤ 4.74 mL/min/kg | 54.3 mL/min/kg |  |  |  | CN(CCO)C(=O)c1ccc(-c2cccc(C(F)(F)F)n2)cc1
49 |  |  |  |  |  | 27 µg/mL (≈ 100 µM) | CCn1nccc1-c1n[nH]c(=O)n1Cc1ccccc1
50 | 2.52 | 4.89 mL/min/kg | ≤ 10.7 mL/min/kg |  |  | 51.2 µg/mL (≈ 174 µM) | Cc1nn(-c2ccccn2)c2nc(C3CC3)cc(C(=O)O)c12
51 | 0.615 | ≤ 4.74 mL/min/kg | 35.2 mL/min/kg |  |  | 37.4 µg/mL (≈ 181 µM) | OCCN1CCC(c2ccncn2)CC1
52 |  | ≤ 4.74 mL/min/kg | ≤ 10.7 mL/min/kg |  |  |  | Cc1nc(CNC(=O)c2ccc(F)c(C)c2)no1
53 | 7.25 | 55.8 mL/min/kg | 765 mL/min/kg |  |  |  | CC(C)Cc1ccccc1CNCc1ccc2[nH]cnc2c1
54 | 31.2 | ≤ 4.74 mL/min/kg | ≤ 10.7 mL/min/kg |  |  |  | CCN(CCO)Cc1nc2cc(OC)c(OC)cc2c(=O)[nH]1
55 | 0.797 | ≤ 4.74 mL/min/kg | 39.8 mL/min/kg |  |  | 35.9 µg/mL (≈ 152 µM) | CCc1nc(CC)n(Cc2nc(C)cs2)n1
56 |  |  |  |  |  | 0.19 µg/mL (≈ 0.719 µM) | N#Cc1c(N)nc(-c2ccccc2)nc1C(F)(F)F
57 | 8.75 | ≤ 4.74 mL/min/kg | 19 mL/min/kg |  |  |  | O=C(NCc1nc(-c2cnccn2)n[nH]1)C1Cc2ccccc2C1
